A word on the ILS: it is the gain in survival time of treated over control animals, in per cent.

19 molecules from ChEMBL document CHEMBL3272039, “Potenial antitumor agents. 28. Deoxyribonucleic acid polyintercalating agents” (J Med Chem, 1978) can be followed below.

The species named for one series is Bos taurus. Description: Displacement of ethidium bromide from calf thymus DNA by spectrofluorometric analysis.
Series [1] in a line: Lipophilic-hydrophilic balance, Rm of the compound by reversed-phase chromatographic analysis. It is filed as physicochemical.
The next series concerns P388. In words: Antitumor activity against mouse P388 cells allografted in ip dosed BDF1 mouse at optimum dose administered qd for 5 days relative to control. It is filed as functional.
Series [2] can be described thus: (§1) Toxicity in ip dosed BDF1 mouse allografted with mouse P388 cells administered qd for 5 days. It is filed as organism-based. To be noted: BDF1, mouse, in vivo.
For the next series, the system named is Pseudoalteromonas. Description: Induction of bacteriophage PM2 closed circular DNA unwinding assessed as drug per nucleic acid phosphate ratio at equivalence by viscometric analysis.
Another series relates to L1210. In words: Antitumor activity against mouse L1210 cells allografted in ip dosed BDF1 mouse at optimum dose administered qd for 5 days relative to control. It is filed as functional.
Series [3] has as its system Mus musculus. In words: (§2) Toxicity in ip dosed BDF1 mouse allografted with mouse L1210 cells administered qd for 5 days. To be noted: mouse, in vivo, 120 h. It is filed as organism-based.
The subject of series [4] is Mus musculus. The series is described as §1. It is filed as organism-based. To be noted: mouse, in vivo, 120 h.
A short description of series [5]: as §2. It is filed as organism-based. To be noted: BDF1, mouse, in vivo.

Each structure is given as a SMILES string.

As for `COc1cc(NS(=O)(=O)CCCCS(=O)(=O)Nc2ccc(Nc3ccnc4ccccc34)c(OC)c2)ccc1Nc1ccnc2ccccc12.Cl.O`, in the series filed under Bos taurus, the C50 amounted to 7.5 µM. In series [1], this molecule came in with a Rm of -0.28. The ILS in the series with P388 is reported as above 25%. In series [2], the MTD at 120 h came out at 12 mg/kg/day. Also, in the series on Pseudoalteromonas, the Ratio came to 0.15.

In the series listed under Bos taurus, `Cl.O.O=S(=O)(CCNc1ncnc2ccccc12)Nc1ccc(Nc2c3ccccc3nc3ccccc23)cc1` yielded a C50 of 0.67 µM. The Rm in [1] is listed as -0.53. Further, the ILS in the series with P388 was found to be 100%; in the series on L1210 it was 57%. Besides, the Activity in the series on Mus musculus [3] is reported as 50 mg/kg/day; with Mus musculus [4], 100 mg/kg/day.

Take `Cl.O.O=S(=O)(CCCNc1c2ccccc2nc2ccccc12)Nc1ccc(Nc2c3ccccc3nc3ccccc23)cc1`: the C50 in the series listed under Bos taurus turned out to be 0.1 µM. The Rm in [1] is -0.25. The values for the ILS with P388 and in the series with L1210 were 38% and above 25%, respectively. In series [5], this molecule yielded an MTD at 120 h of 300 mg/kg/day. This molecule came in with an Activity with Mus musculus [4] of 300 mg/kg/day.

In turn, `Cl.c1ccc(OCCCOc2ccccc2Nc2c3ccccc3nc3ccccc23)c(Nc2c3ccccc3nc3ccccc23)c1` came in with a C50 in the series listed under Bos taurus of 0.6 µM. Moreover, the Rm in series [1] amounted to 0.28. Moreover, in the series on P388, the ILS was above 25%. This molecule came in with an MTD at 120 h in [2] of 50 mg/kg/day. For the same molecule, the Ratio in the series on Pseudoalteromonas was 0.072.

For the molecule `Br.O=S(=O)(CCCCNc1ccnc2ccccc12)Nc1ccc(Nc2c3ccccc3nc3ccccc23)cc1`, in the series listed under Bos taurus, the C50 was 0.18 µM. This molecule also yielded a Rm in [1] of -0.31. Also, the ILS with P388 is listed as 76%; in the series with L1210, 29%. Further, the Activity in the series on Mus musculus [3] and with Mus musculus [4] was 75 mg/kg/day each time. For the same molecule, the Ratio in the series on Pseudoalteromonas is 0.091.

`CS(=O)(=O)Nc1ccc(Nc2ccnc3ccccc23)cc1`: the C50 in the series filed under Bos taurus was determined as 490 µM. The molecule further had a Rm in [1] of -0.39. In addition, the ILS in the series on P388 and in the series with L1210 was above 25% in each case. Further, the MTD at 120 h in series [5] and in [2] was 200 mg/kg/day throughout.

`c1ccc(Nc2c3ccccc3nc3ccccc23)cc1` gave a C50 in the series filed under Bos taurus of 13 µM. The Rm in series [1] amounted to 0.43. For the same molecule, the increase in lifespan (ILS) in the series with P388 and in the series on L1210 was above 25% throughout. For the same molecule, the MTD at 120 h in [5] and in [2] was 105 mg/kg/day each time.

`Br.O.O=S(=O)(CCNc1ccnc2ccccc12)Nc1ccc(Nc2c3ccccc3nc3ccccc23)cc1`: the C50 in the series listed under Bos taurus came out at 0.12 µM. This molecule registered a Rm in series [1] of -0.54. The ILS is reported as 36% with P388 and above 25% in the series with L1210. Further, in [5], the MTD at 120 h came out at 90 mg/kg/day. This molecule also returned an Activity with Mus musculus [4] of 90 mg/kg/day. Besides, the Ratio in the series on Pseudoalteromonas stood at 0.12.

For the molecule `Cl.O.O=S(=O)(CCCS(=O)(=O)Nc1ccc(Nc2c3ccccc3nc3ccccc23)cc1)Nc1ccc(Nc2c3ccccc3nc3ccccc23)cc1`, in the series filed under Bos taurus, the C50 is 0.064 µM. The Rm in series [1] was -0.16. Further, the ILS was 29% with P388 and above 25% in the series on L1210. The MTD at 120 h in [5] worked out at 250 mg/kg/day. The same molecule registered an Activity in the series with Mus musculus [4] of 250 mg/kg/day.

Take `Cl.O.O=S(=O)(CCCCCNc1ccnc2ccccc12)Nc1ccc(Nc2c3ccccc3nc3ccccc23)cc1`: the C50 in the series filed under Bos taurus was 0.4 µM. Further, in [1], the Rm was -0.24. Also, the ILS in the series on P388 is 37%; with L1210, above 25%. The MTD at 120 h in series [5] is 200 mg/kg/day. Also, the Activity in the series with Mus musculus [4] worked out at 200 mg/kg/day.

With `COc1cc(NS(C)(=O)=O)ccc1Nc1c2ccccc2nc2ccccc12` [AMSACRINE], the C50 in the series filed under Bos taurus was determined as 10.8 µM. In series [1], the Rm amounted to 0.18. Also, the ILS in the series with L1210 came out at 114%. In addition, the Activity in the series with Mus musculus [3] and with Mus musculus [4] was 6.7 mg/kg/day throughout. For the same molecule, the Ratio in the series with Pseudoalteromonas was 0.082.

In the series listed under Bos taurus, `CCOc1cc(NS(C)(=O)=O)ccc1Nc1c2ccccc2nc2ccccc12` yielded a C50 of 19 µM. This molecule had a Rm in series [1] of 0.37. Also, the increase in life span (ILS) amounted to 218% with P388 and 71% with L1210. The Activity in the series with Mus musculus [3] and with Mus musculus [4] was 60 mg/kg/day throughout.

Turning to `COc1cc(NS(=O)(=O)CCCCS(=O)(=O)Nc2ccc(Nc3c4ccccc4nc4ccccc34)c(OC)c2)ccc1Nc1c2ccccc2nc2ccccc12`, in the series filed under Bos taurus, the C50 turned out to be 0.057 µM. The molecule further had a Rm in [1] of 0.27. For the same molecule, the figures for the ILS with P388 and in the series with L1210 were 39% and 26%, respectively. Besides, the Activity in the series with Mus musculus [3] and in the series with Mus musculus [4] was above 500 mg/kg/day throughout. Further, the Ratio in the series with Pseudoalteromonas was 0.041.

In turn, `COc1cc(NS(=O)(=O)CCCCCS(=O)(=O)Nc2ccc(Nc3c4ccccc4nc4ccccc34)c(OC)c2)ccc1Nc1c2ccccc2nc2ccccc12.CS(=O)(=O)O.O` had a C50 in the series filed under Bos taurus of 0.14 µM. This molecule gave a Rm in [1] of 0.35. For the same molecule, the ILS in the series with P388 is on record as 71%; with L1210, 36%. For the same molecule, the Activity with Mus musculus [3] and in the series on Mus musculus [4] was 400 mg/kg/day throughout.

`Cl.O.O=S(=O)(CCCCNc1c2ccccc2nc2ccccc12)Nc1ccc(Nc2c3ccccc3nc3ccccc23)cc1` came in with a C50 in the series filed under Bos taurus of 0.09 µM. The same molecule displayed a Rm in series [1] of -0.1. This molecule also came in with an ILS in the series on P388 above 25%. The same molecule displayed an MTD at 120 h in series [2] of 37 mg/kg/day. In the series on Pseudoalteromonas, the Ratio stood at 0.066.

In the case of `Br.O.O=S(=O)(CCCCCCNc1ccnc2ccccc12)Nc1ccc(Nc2c3ccccc3nc3ccccc23)cc1`, the C50 in the series filed under Bos taurus was 0.65 µM. Moreover, the Rm in [1] is reported as -0.09. Further, the ILS in the series with P388 and in the series with L1210 was above 25% throughout. The MTD at 120 h in [5] and in series [2] was 75 mg/kg/day each time.

In turn, `Cl.O.O=S(=O)(CCNc1c2ccccc2nc2ccccc12)Nc1ccc(Nc2c3ccccc3nc3ccccc23)cc1` gave a C50 in the series filed under Bos taurus of 0.09 µM. Also, in series [1], the Rm was -0.17. Further, the ILS is 31% in the series with P388 and above 25% with L1210. The MTD at 120 h in series [5] is 60 mg/kg/day. This molecule came in with an Activity in the series on Mus musculus [4] of 60 mg/kg/day. The Ratio in the series on Pseudoalteromonas came out at 0.078.

`CS(=O)(=O)Nc1ccc(Nc2c3ccccc3nc3ccccc23)cc1` gave a C50 in the series listed under Bos taurus of 5.9 µM. The same molecule yielded a Rm in series [1] of 0. The ILS with P388 stood at 223%; in the series on L1210, 107%. Also, the Activity in the series with Mus musculus [3] and in the series with Mus musculus [4] was 45 mg/kg/day throughout.

As to `Cl.O.O=S(=O)(CCCCCNc1c2ccccc2nc2ccccc12)Nc1ccc(Nc2c3ccccc3nc3ccccc23)cc1`, the C50 in the series filed under Bos taurus stood at 0.17 µM. Moreover, the Rm in [1] was -0.04. Also, the increase in life span (ILS) with P388 was determined as 63%; in the series with L1210 it was 35%. For the same molecule, the Activity with Mus musculus [3] and with Mus musculus [4] was 250 mg/kg/day throughout.
